# Measured values published in patent US12331052B2, “Organic compounds” (INTRA-CELLULAR THERAPIES, INC., priority 2018, dated 2025).
# Several values for one entry are separate records, joined by “and”; a condition that tells them apart may be missing. Identical values can stand only once. Like-named read-outs stand apart in the source and are kept apart here.
# How the values were obtained:
# [1] = system: tyrosine hydroxylase phosphorylation at Ser40; assay: CNS phosphoprotein profile, nucleus accumbens: TH; type: in vivo, mice; settings: for increase in TH phosphorylation: mice nucleus accumbens, haloperidol 2 mg/kg, relative to vehicle-treated control
# Experimental: (§1) A comprehensive molecular phosphorylation study is also carried out to examine the central nervous system (CNS) profile of the compound of Example 1. The extent of protein phosphorylation for selected key central nervous system proteins is measured in mice nucleus accumbens.
# (§2) Mice were killed 30 minutes to 2 hours post-injection by focused microwave cranial irradiation, which preserves brain phosphoprotein as it exists at the time of death. Nucleus accumbens was then dissected from each mouse brain, sliced and frozen in liquid nitrogen. Samples were further prepared for phosphoprotein analysis via SDS-PAGE electrophoresis followed by phosphoprotein-specific immunoblotting, as described in Zhu H, et al., Brain Res. 2010 Jun. 25; 1342:11-23. Phosphorylation at each site was quantified, normalized to total levels of the protein (non-phosphorylated), and expressed as percent of the level of phosphorylation in vehicle-treated control mice.
# [2] = system: NR2B phosphorylation at Tyr1472; assay: CNS phosphoprotein profile, nucleus accumbens: NR2B; type: in vivo, mice; settings: 3 mg/kg; at 30-60 minutes
# Experimental: as §1, §2
# mice = assay: Mouse marble-burying study (OCD model); type: in vivo; settings: 0.3 mg/kg orally 30 minutes prior, of 15 marbles
# Excerpt: The marble burying test is used to measure repetitive and anxiety-related behavior in rodents. It is based on the observation that rats and mice will bury either harmful or harmless objects in their bedding, and it has been used as an animal model to measure the effect of pharmacological interventions in treatment of repetitive behavior disorders, such as OCD.
# MPEP is a selective mGluR5 glutamate receptor antagonist. […] Mice in groups (1) are orally administered the vehicle, and mice in group (4) are given an intraperitoneal injection of MPEP just prior to the start of the test.
# The test is conducted in rectangular cages with 4-5 cm of wood chip bedding in a room with the window shades lowered and the door closed to minimize distractions. Fifteen clean marbles are evenly spaced on top of the bedding in three rows of five marbles. One mouse is placed in each cage. The mouse in the cage is left undisturbed for 30 minutes. At the end of the test, the mouse is removed and the number of marbles buried to at least ⅔ of their depth is counted.
# C57 mice = settings: mouse, in vivo
# rats [3] = assay: Pulmonary function in rats; type: in vivo; settings: for RR: 60 minutes
# [4] = male, Sprague-Dawley, rat, in vivo, sc, 0.3 mg/kg
# [5] = rat, in vivo
# rats [6] = settings: for Motility Ratio: 30 minutes prior to charcoal bolus
# male Sprague-Dawley rats = assay: Rat tolerance/dependence study (28 day)
# 5-HT2A = 5-HT2A (Homo sapiens, UniProt P28223); assay: biochemical; type: binding; settings: read-out: maximum inhibition
# 5-HT2A, sequence (P28223 whole entry): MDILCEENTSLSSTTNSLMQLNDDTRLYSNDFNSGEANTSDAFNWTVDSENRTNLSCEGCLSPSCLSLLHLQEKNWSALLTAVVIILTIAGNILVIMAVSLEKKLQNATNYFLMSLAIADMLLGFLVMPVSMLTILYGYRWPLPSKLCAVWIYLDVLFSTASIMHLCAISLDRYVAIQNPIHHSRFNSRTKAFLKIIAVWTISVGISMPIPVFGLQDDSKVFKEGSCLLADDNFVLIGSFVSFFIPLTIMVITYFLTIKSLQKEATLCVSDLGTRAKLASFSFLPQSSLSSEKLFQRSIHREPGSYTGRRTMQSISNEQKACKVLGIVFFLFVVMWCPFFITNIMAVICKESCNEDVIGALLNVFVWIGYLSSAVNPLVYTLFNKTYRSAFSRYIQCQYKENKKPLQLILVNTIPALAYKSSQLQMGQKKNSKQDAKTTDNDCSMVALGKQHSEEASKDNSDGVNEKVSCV
# D2 = D2 (Homo sapiens, UniProt P14416); assay: Receptor binding, D2; settings: @ 100 nM; read-out: maximum inhibition
# D2, sequence (P14416 1-414 isoform P14416-2): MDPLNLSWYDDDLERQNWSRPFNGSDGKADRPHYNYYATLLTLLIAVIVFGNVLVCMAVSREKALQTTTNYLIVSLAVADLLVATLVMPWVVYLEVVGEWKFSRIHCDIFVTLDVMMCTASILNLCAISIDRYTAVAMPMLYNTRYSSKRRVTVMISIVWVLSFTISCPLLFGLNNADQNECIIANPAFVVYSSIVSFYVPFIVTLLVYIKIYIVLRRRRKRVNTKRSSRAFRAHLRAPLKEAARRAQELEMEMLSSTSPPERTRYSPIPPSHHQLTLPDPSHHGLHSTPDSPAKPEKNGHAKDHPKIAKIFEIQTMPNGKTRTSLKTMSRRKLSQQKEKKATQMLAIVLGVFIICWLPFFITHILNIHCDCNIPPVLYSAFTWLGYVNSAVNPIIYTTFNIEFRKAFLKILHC
# D1 = D1 (Homo sapiens, UniProt P21728); assay: Receptor binding, D1; settings: @ 100 nM; read-out: maximum inhibition
# D1, sequence (P21728 whole entry): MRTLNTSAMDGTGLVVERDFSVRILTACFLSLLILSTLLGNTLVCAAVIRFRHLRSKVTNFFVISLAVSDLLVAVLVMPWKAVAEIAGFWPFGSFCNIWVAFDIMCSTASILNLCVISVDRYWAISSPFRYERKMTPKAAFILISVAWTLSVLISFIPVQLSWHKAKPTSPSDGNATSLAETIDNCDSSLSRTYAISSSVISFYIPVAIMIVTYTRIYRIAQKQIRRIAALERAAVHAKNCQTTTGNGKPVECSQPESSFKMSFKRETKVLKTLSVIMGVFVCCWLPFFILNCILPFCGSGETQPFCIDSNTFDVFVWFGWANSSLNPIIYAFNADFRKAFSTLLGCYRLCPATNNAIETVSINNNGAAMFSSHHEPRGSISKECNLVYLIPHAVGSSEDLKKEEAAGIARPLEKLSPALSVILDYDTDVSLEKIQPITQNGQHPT
# SERT = SERT (Homo sapiens, UniProt P31645); assay: biochemical; type: binding; settings: read-out: maximum inhibition
# SERT, sequence (P31645 whole entry, species assumed): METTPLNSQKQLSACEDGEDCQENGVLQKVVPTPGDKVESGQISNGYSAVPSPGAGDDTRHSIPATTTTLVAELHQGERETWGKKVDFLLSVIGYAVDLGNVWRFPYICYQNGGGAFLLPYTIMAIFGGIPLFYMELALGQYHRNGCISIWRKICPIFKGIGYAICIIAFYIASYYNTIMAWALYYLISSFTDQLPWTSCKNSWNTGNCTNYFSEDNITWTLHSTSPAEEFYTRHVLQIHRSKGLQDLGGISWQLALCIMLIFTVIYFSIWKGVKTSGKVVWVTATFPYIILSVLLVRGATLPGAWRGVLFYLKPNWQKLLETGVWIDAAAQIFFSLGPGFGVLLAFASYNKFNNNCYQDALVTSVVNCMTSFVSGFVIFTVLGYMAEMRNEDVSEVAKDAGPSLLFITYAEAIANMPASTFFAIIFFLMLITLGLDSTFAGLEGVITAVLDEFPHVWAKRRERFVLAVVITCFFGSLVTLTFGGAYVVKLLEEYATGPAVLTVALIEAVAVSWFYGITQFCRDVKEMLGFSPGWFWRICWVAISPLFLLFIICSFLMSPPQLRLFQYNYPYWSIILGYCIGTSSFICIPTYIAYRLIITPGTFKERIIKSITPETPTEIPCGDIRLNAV
# male C57BL/6J mice = settings: mouse, in vivo
smiles,measurement,setting,value
"O=C1CN2c3c(cccc3[C@@H]3CN(CCCOc4ccc(F)cc4)CC[C@@H]32)N1 [Example 1, (6bR,10aS)-8-(3-(4-fluorophenoxy)propyl)-6b,7,8,9,10,10a-hexahydro-1H-pyrido[3′,4′:4,5]pyrrolo[1,2,3-de]quinoxalin-2(3H)-one]",effect on tyrosine hydroxylase phosphorylation at Ser40,"[1]; 3 mg/kg, at 30 minutes or 60 minutes",no significant effect
same,effect on NR2B phosphorylation at Tyr1472,[2],no significant effect
same,Marbles Buried,mice,9.3
same,Mean Behavior Rating (0-4),"C57 mice; po, 3 mg/kg",0.9 and 0.8 and 1.5
same,Mean Behavior Rating (0-4),"C57 mice; sc, 1 mg/kg",1.0 and 1.9 and 1.1
same,RR,rats [3]; 0.3 mg/kg SC,181 breaths/min
same,RR,rats [3]; 1.0 mg/kg SC,203 breaths/min
same,RR,rats [3]; 3.0 mg/kg SC,190 breaths/min
same,"respiratory rate, tidal volume and minute volume vs vehicle","rats [3]; 0.3, 1.0 and 3.0 mg/kg SC, 0, 15, 60, 120, 240 minutes",no significant differences
same,peak plasma concentrations,[4],15 to 38 ng/mL
same,Bioavailability,"[5]; iv, 1 mg/kg",100%
same,t-1/2,"[5]; po, 10 mg/kg",3.1 h
same,t-1/2,"[5]; sc, 3 mg/kg",9.5 h
same,effect on gastrointestinal motility,rats [6]; at a dose up to 3 mg/kg,no significant effect
same,physical dependence upon cessation of dosing,male Sprague-Dawley rats; 0.3 and 3 mg/kg,not to produce a syndrome of physical dependence
same,tolerance during subcutaneous dosing for 28 days,male Sprague-Dawley rats; 0.3 and 3 mg/kg four times,does not produce tolerance
same,"effect on animal body weight, food and water intake or body temperature","male Sprague-Dawley rats; 0.3 and 3 mg/kg s.c. four times per day, on-dose or withdrawal phase",no significant effect
same,main behavioral and physical signs,male Sprague-Dawley rats; higher dose (3 mg/kg),"hunched posture, subdued behavior, Straub tail, tail rattle and piloerection"
same,"predominant behavioral and physical effects, dosing phase",male Sprague-Dawley rats; repeated administration at 0.3 mg/kg,"hunched posture, Straub tail and piloerection"
"O=C1CN2c3c(cccc3[C@@H]3CN(CCCc4n[nH]c5cc(F)ccc45)CC[C@@H]32)N1 [Example 2, (6bR,10aS)-8-(3-(6-fluoro-1H-indazol-3-yl)propyl)-6b,7,8,9,10,10a-hexahydro-1H-pyrido[3′,4′:4,5]pyrrolo[1,2,3-de]quinoxalin-2(3H)-one]",Motility Ratio,rats [6]; 0.3 mg/kg SC,0.50
same,Motility Ratio,rats [6]; 1 mg/kg SC,0.55
same,Motility Ratio,rats [6]; 3 mg/kg SC,0.50
"O=C1CN2c3c(cccc3[C@@H]3CN(CCCOc4cccc(F)c4)CC[C@@H]32)N1 [Example 20, (6bR,10aS)-8-(3-(3-fluorophenoxy)propyl)-6b,7,8,9,10,10a-hexahydro-1H-pyrido[3′,4′:4,5]pyrrolo[1,2,3-de]quinoxalin-2(3H)-one]",inhibition at 0.1 µM,5-HT2A,79%
same,inhibition at 0.1 µM,D2,14%
same,inhibition at 0.1 µM,D1,32%
same,inhibition at 0.2 µM,SERT,8%
"O=C1CN2c3c(cccc3[C@@H]3CN(CCCOc4ccccc4F)CC[C@@H]32)N1 [Example 21, (6bR,10aS)-8-(3-(2-fluorophenoxy)propyl)-6b,7,8,9,10,10a-hexahydro-1H-pyrido[3′,4′:4,5]pyrrolo[1,2,3-de]quinoxalin-2(3H)-one]",inhibition at 0.1 µM,5-HT2A,88%
same,inhibition at 0.1 µM,D2,28%
same,inhibition at 0.1 µM,D1,18%
same,inhibition at 0.2 µM,SERT,5%
"CC(C)N1C(=O)CN2c3c(cccc31)[C@@H]1CN(CCCOc3ccc(F)cc3)CC[C@@H]12 [Example 22, (6bR,10aS)-8-(3-(4-fluorophenoxy)propyl)-3-isopropyl-6b,7,8,9,10,10a-hexa-hydro-1H-pyrido[3′,4′:4,5]pyrrolo[1,2,3-de]quinoxalin-2(3H)-one]",inhibition at 0.1 µM,5-HT2A,81%
same,inhibition at 0.1 µM,D2,39%
same,inhibition at 0.1 µM,D1,70%
same,inhibition at 0.2 µM,SERT,11%
"O=C1CN2c3c(cccc3[C@@H]3CN(CCCOc4ccc(I)cc4)CC[C@@H]32)N1 [Example 23, (6bR,10aS)-8-(3-(4-iodophenoxy)propyl)-6b,7,8,9,10,10a-hexahydro-1H-pyrido[3′,4′:4,5]pyrrolo[1,2,3-de]quinoxalin-2(3H)-one]",inhibition at 0.1 µM,5-HT2A,81%
same,inhibition at 0.1 µM,D2,14%
same,inhibition at 0.1 µM,D1,3%
same,inhibition at 0.2 µM,SERT,48%
"O=C1CN2c3c(cccc3[C@@H]3CN(CCCOc4ccc(Br)cc4)CC[C@@H]32)N1 [Example 24, (6bR,10aS)-8-(3-(4-bromophenoxy)propyl)-6b,7,8,9,10,10a-hexahydro-1H-pyrido[3′,4′:4,5]pyrrolo[1,2,3-de]quinoxalin-2(3H)-one]",inhibition at 0.1 µM,5-HT2A,72%
same,inhibition at 0.1 µM,D2,8%
same,inhibition at 0.1 µM,D1,3%
same,inhibition at 0.2 µM,SERT,44%
"Cc1ccc(OCCCN2CC[C@H]3[C@@H](C2)c2cccc4c2N3CC(=O)N4)cc1 [Example 25, (6bR,10aS)-8-(3-(p-tolyloxy)propyl)-6b,7,8,9,10,10a-hexahydro-1H-pyrido-[3′,4′:4,5]pyrrolo[1,2,3-de]quinoxalin-2(3H)-one]",inhibition at 0.1 µM,5-HT2A,62%
same,inhibition at 0.1 µM,D2,21%
same,inhibition at 0.1 µM,D1,14%
same,inhibition at 0.2 µM,SERT,10%
"CN1CC[C@]23c4c5ccc(O)c4O[C@H]2[C@@H](O)C=C[C@H]3[C@H]1C5 [Morphine, morphine, reference compound]",reduction in gastric motility,rats [6]; 5 mg/kg SC,~50%
"C=CCN1CC[C@]23c4c5ccc(O)c4O[C@H]2C(=O)CC[C@@]3(O)[C@H]1C5 [Naloxone, naloxone]",Body Weight Loss,male C57BL/6J mice,0.5%
same,Jumps,male C57BL/6J mice,0
same,Paw Tremors,male C57BL/6J mice,0.87
same,Total Number of Signs,male C57BL/6J mice,2.2
O=C(CCCN1CCC(O)(c2ccc(Cl)cc2)CC1)c1ccc(F)cc1 [haloperidol],increase in TH phosphorylation,[1],greater than 400%
Cc1nc2n(c(=O)c1CCN1CCC(c3noc4cc(F)ccc34)CC1)CCCC2 [risperidone],increase in TH phosphorylation,[1],greater than 500%
